Source: patent US11279966B2, “Method for identifying compound for inhibiting an activity of a histone lysine demethylase” (NATIONAL TSING HUA UNIVERSITY, priority 2014, dated 2022)

Experiments:
HeLa cells = details: read-out: cytotoxic IC50 in HeLa cells; cited from earlier work
KDM4B = target: T1, KDM4B (Homo sapiens, UniProt O94953); experiment: Formaldehyde dehydrogenase-coupled demethylase assay, KDM4B; format: biochemical; design: concentration or dose not given beside the values; details: FDH-coupled assay
T1 construct: Human KDM4B 1-348 and KDM4A 1-347 were PCR amplified; His6 (N); made in house; host or cells: Escherichia coli BL21 (DE3)
T1 sequence (O94953 1-348): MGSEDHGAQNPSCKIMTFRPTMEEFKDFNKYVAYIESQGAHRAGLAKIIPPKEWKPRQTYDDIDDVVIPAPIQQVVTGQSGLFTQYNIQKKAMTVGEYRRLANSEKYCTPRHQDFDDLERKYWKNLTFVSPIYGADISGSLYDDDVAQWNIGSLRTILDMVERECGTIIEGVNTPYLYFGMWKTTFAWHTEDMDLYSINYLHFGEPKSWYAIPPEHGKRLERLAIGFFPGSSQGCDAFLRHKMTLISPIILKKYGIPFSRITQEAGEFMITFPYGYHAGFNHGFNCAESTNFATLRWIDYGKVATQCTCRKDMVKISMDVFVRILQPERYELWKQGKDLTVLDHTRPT

KDM4A = target: T2, KDM4A (Homo sapiens, UniProt O75164); experiment: Formaldehyde dehydrogenase-coupled demethylase assay, KDM4A; format: biochemical; design: Demethylase Residual Activity (%): concentration or dose not given beside the values; details: for Demethylase Residual Activity (%): FDH-coupled assay
T2 construct: Human KDM4B 1-348 and KDM4A 1-347 were PCR amplified; His6 (N); made in house; host or cells: Escherichia coli BL21 (DE3)
T2 sequence (O75164 1-347): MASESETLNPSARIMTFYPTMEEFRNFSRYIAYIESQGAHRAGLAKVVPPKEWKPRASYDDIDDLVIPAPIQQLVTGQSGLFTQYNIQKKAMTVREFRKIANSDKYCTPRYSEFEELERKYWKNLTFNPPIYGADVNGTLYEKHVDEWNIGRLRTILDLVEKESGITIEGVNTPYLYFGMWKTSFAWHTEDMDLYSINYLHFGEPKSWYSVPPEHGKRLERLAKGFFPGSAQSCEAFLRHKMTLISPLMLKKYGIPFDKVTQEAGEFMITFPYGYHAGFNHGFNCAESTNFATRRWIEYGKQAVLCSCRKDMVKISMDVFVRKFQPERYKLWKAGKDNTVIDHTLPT

[1] = target: T3, FDH (formaldehyde dehydrogenase) (Pseudomonas putida, UniProt P46154); experiment: FDH residual activity (control for the coupling enzyme); format: biochemical; design: concentration or dose not given beside the values
T3 construct: purchased Sigma
T3 sequence (P46154 1-399): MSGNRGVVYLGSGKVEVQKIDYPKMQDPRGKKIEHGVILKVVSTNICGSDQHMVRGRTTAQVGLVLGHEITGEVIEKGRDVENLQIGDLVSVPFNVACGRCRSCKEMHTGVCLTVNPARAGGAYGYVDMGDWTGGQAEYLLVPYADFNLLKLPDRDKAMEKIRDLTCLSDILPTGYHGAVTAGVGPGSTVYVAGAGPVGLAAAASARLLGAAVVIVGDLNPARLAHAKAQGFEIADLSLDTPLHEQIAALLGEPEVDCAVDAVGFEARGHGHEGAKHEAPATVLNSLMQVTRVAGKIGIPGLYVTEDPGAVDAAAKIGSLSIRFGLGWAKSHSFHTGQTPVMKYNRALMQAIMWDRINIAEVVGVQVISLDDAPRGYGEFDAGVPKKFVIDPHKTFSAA

KDM4A/KDM4B [2] = experiment: KDM4A/KDM4B inhibitory assay, results stated in words; format: biochemical, human
Description: Formaldehyde dehydrogenase-coupled demethylase assay was used to determine the demethylase activity and select the potent inhibitors. All inhibitors were dissolved in dimethyl sulfoxide (DMSO) at various concentrations, and added to the mixture that the final DMSO concentration is 5%. The reagents for demethylase reactions were dissolved in HEPES buffer (50 mM, pH 7.5), with the exception of Fe(II) solutions, which were made using (NH4)2Fe(SO4)2 dissolved in 20 mM HCl to make 400 mM stock solution. All the reagents were stored at −30° C. FDH, NAD+, H-TKQTARK(Me3)[…]-OH (TR-15, H33-17K9me3, Kelowna), DMSO, and KDM4B were added first to 96-well black immune plate (SPL Life Science) and incubated together on ice for 15 min. Then the plate was put into FLUOStar OPTIMA ELISA reader (BMG LABTECH) with 37° C., and the reaction was started by adding ascorbic acid (ascorbate), Fe(II), and α-ketoglutarate (AKG) to final concentration of 50 mM HEPES, pH 7.5, 2 μM of KDM4B, 5% DMSO, 0.01 U FDH (Sigma), 1 mM NAD+, 1 mM 2-OG, 2 mM ascorbate, and 50 μM Fe(II), various concentration of H3K9me3 peptide, and the final volume was 50 μl. Each reaction was incubated at 37° C. for 30 min and the production of NADH would be detected by using the fluorescence Ex 360/Em 470. […]

LNCaP cells [3] = experiment: Flow cytometric analysis of DNA content (sub-G1, apoptosis) in LNCaP cells; format: cell-based, human; details: 50 μM, 3 days; mock 11.9%
Description: (§1) LNCaP cells are infected with lentivirus with control shRNA (control) and shKDM4A or shKDM4B as indicated (left panel). The qRT-PCR analysis is performed to evaluate the expression of KDM4s (right panel). […] LNCaP cells are treated with 1,5-bis[(E)-2-(3,4-dichlorophenyl) ethenyl]-2,4-dinitrobenzene for three days, and the viability is measured by viable cell count. SD is derived from biological triplicates. The level of H3K9me3 of 1,5-bis[(E)-2-(3,4-dichlorophenyl)ethenyl]-2,4-dinitrobenzene-treated cells (24 hr) is detected and quantified by AlphaView SA (Cell Biosciences Inc.). The level of H3K9me3 is shown by bar graph.
(§2) Total cell lysates were obtained by lysing the cell with buffer (50 mM Tris-HCl pH7.5, 150 mM NaCl, 0.5% Triton X-100, 10% glycerol, 1 mM EDTA, protease inhibitors) for 15 min on ice, followed by 10 min of sonication cycle (30 sec on, 30 sec off) on ice. The level of total histone H3 and trimethylated histone H3 Lys9 was analyzed by western blotting using anti-histone H3 and anti-H3K9me3 antibodies (Abcam, MA). Cells treated with mock and the inhibitor were harvested and fixed by 70% ethanol for >4 hours at −20° C., followed by propidium iodide (Sigma Aldrich) staining. The DNA content was analyzed by Becton Dickinson FACScan flow cytometry, and the sub-G1 population was quantified by WinMDI 2.9.

LNCaP cells [4] = experiment: Microarray gene expression analysis of treated LNCaP cells; format: cell-based, human; details: 3 days
Description: LNCaP cells treated with mock and the 1,5-bis[(E)-2-(3,4-dichlorophenyl) ethenyl]-2,4-dinitrobenzene inhibitor for 3 days were harvested and the total RNA was extracted using Trizol reagent (Life Technologies, NY). Microarray analysis was performed by the University of California Davis Cancer Center Gene Expression Resource, using Affymetrix Human Genome U133A (HG-U133A) GeneChip arrays (Affymetrix, CA), which permit expression analysis of the entire Genbank RefSeq database. Array scanning and generation of raw signal data files were done with GeneChip Operating Software (Affymetrix). Subsequent data analysis was done by GeneSpring (Agilent Technologies, CA) and DAVID Bioinformatic Resources 6.7 (NIH).

H3K9me3 in LNCaP cells = experiment: Cellular level of H3K9me3 in LNCaP cells, immunoblotting; format: cell-based, human
Description: as §1, §2

in vitro = format: cell-based; details: human
Description: as §1
Primary PrEC cells were purchased from Clonetics (Walkersville, Md.) and cultured in serum-free prostate epithelial cell growth medium following the vendor's directions. Cell lines RWPE1, LNCaP (LNCaP-FGC), CWR22Rv1 (22Rv1), VCaP, DU145, PC3 (all purchased from ATCC), and PNT2 (Sigma Aldrich, MO), were cultured under condition as recommended. CWR-R1 cell (40) and LNCaP derived C4-2, C4-2B cells were cultured in RPMI1640 medium containing 10% FBS.

KDM4A/KDM4B [5] = details: calf thymus histones as substrate

SMILES | Demethylase Residual Activity (%) (KDM4B) | Demethylase Residual Activity (%) (KDM4A) | FDH Residual Activity (%) [1] | also measured
O=C(O)c1ccc(O)c2ncccc12 [5-carboxy-8HQ] | – | – | – | IC50 (HeLa cells): 86.5 µM
CCCCCC/C(C)=N/Nc1ccc([N+](=O)[O-])cc1[N+](=O)[O-] [NSC1018] | 62% | 85% | >80% | –
C/C(=N/Nc1ccc([N+](=O)[O-])cc1[N+](=O)[O-])c1ccccc1 [NSC6129] | 52% | 100% | >80% | –
O=C1C=Cc2ccccc2/C1=N/Nc1ccc([N+](=O)[O-])cc1[N+](=O)[O-] [NSC15975] | 90% | 73% | >80% | –
O=C(O)c1ccc(C(=O)c2ccccc2C(=O)O)cc1C(=O)O [NSC28620] | – | – | >80% | inhibitory effect on KDM4A/KDM4B (in words) (KDM4A/KDM4B [2]): completely lost the inhibitory effects
COC1CC(OC(=O)c2ccc([N+](=O)[O-])cc2)C(OC(=O)c2ccc([N+](=O)[O-])cc2)C(C)O1 (stereo not shown) [NSC107408] | 64% | 99% | >80% | inhibitory effect on KDM4A/KDM4B (in words) (KDM4A/KDM4B [2]): no inhibition
O=C1C=CC=C/C1=C\Nc1cc(C(=O)O)cc(C(=O)O)c1 [NSC124029] | 62% | 93% | 97% | –
O=[N+]([O-])c1cc([N+](=O)[O-])c(/C=C/c2ccc(Cl)c(Cl)c2)cc1/C=C/c1ccc(Cl)c(Cl)c1 [NSC636819] | – | – | >80% | apoptotic LNCaP cells (LNCaP cells [3]): 39.5%; inhibitory mode (KDM4A; against H33-17K9me3): competitive; expression of oncogenes IGF1R, FGFR3, CCNE2, AURKA and AURKB (LNCaP cells [4]): down-regulation; expression of tumour suppressors RB1, CDH1 (LNCaP cells [4]): up-regulation; portion of the altered genes found to be androgen responsive genes (LNCaP cells [4]; ≥two-fold alterations, 178/656): 27%; demethylating activity toward H3K9me3 in cells (H3K9me3 in LNCaP cells; 5 μM): essentially completely blocked; cellular level of H3K9me3 (H3K9me3 in LNCaP cells; 24 hr, dose-dependent): notable increase; IC50 at 3 days (in vitro): 21.2 µM
COC(=O)C(C(=O)C(=O)Nc1ccc([N+](=O)[O-])cc1[N+](=O)[O-])c1nc2ccc(Cl)cc2[nH]c1=O (stereo not shown) [NSC640999] | 49% | 77% | >80% | –
C/C(CC(O)(C(F)(F)F)C(F)(F)F)=N/Nc1ccc([N+](=O)[O-])cc1[N+](=O)[O-] [NSC659196] | 56% | 92% | >80% | –
O=C(O)c1ccnc(C(=O)O)c1 [PD2, pyridine 2,4-dicarboxylic acids, reference compound] | 24% | 21% | – | demethylation activity on histones (H3K9me3, H3K36me3 western blot) (KDM4A/KDM4B [5]): blocked the demethylation activity
